Literature values in patent publication US12673067B2, “Methods, agents, and devices for local neuromodulation of autonomic nerves” (Tulavi Therapeutics, Inc., priority 2016, dated 2026).
Like-named read-outs stand apart in the source and are kept apart here.

Assays:
[1] = molecular target: T1, FFA1 (Homo sapiens, UniProt O14842); details: Ca2+ mobilization, fluorescent indicator
[2] = molecular target: T2, GPR120 (Homo sapiens, UniProt Q5NUL3); details: Ca2+ mobilization, fluorescent indicator
T2 sequence (Q5NUL3 1-361): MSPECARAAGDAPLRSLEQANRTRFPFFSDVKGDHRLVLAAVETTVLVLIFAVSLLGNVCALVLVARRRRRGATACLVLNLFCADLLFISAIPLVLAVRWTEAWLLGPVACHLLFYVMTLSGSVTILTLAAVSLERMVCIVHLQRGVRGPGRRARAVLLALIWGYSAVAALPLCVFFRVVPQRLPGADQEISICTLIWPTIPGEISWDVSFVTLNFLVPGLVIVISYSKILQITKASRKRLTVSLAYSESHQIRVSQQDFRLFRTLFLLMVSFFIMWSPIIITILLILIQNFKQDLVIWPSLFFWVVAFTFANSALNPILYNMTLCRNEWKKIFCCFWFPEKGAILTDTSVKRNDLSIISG

[3] = system: stellate ganglion; details: dog, in vivo
[4] = molecular target: T1, FFA1; details: footnote a: ERK activation (Smith 2009) or aequorin reporter (Kotarsky 2003)
[5] = molecular target: T1, FFA1; details: footnote b: insulin secretion/DMR assay
[6] = molecular target: T3, FFA3 (Homo sapiens, UniProt O14843)
T3 sequence (O14843 1-346): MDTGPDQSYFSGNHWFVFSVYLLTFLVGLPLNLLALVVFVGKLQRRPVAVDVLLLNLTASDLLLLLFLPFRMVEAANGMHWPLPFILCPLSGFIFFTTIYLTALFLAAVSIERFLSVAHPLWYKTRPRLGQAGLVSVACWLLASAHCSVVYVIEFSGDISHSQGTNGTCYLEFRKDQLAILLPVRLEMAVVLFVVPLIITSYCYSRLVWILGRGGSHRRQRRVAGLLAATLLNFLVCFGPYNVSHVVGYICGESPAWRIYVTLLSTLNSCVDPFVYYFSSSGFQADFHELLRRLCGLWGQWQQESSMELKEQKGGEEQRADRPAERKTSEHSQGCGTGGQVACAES

[7] = molecular target: T4, FFA2 (Homo sapiens, UniProt O15552)
T4 sequence (O15552 1-330): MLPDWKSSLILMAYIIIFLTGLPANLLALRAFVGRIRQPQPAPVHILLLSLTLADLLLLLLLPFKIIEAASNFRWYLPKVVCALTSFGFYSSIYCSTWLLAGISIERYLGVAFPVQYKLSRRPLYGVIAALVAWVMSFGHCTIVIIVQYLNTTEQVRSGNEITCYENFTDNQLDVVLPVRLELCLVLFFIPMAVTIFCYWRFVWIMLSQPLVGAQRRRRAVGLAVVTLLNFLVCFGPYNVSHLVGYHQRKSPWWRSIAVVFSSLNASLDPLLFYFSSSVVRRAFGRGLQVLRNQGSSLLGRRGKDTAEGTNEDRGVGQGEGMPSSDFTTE

[8] = molecular target: T5, PPARγ (Homo sapiens, UniProt P37231)
T5 sequence (P37231 1-505): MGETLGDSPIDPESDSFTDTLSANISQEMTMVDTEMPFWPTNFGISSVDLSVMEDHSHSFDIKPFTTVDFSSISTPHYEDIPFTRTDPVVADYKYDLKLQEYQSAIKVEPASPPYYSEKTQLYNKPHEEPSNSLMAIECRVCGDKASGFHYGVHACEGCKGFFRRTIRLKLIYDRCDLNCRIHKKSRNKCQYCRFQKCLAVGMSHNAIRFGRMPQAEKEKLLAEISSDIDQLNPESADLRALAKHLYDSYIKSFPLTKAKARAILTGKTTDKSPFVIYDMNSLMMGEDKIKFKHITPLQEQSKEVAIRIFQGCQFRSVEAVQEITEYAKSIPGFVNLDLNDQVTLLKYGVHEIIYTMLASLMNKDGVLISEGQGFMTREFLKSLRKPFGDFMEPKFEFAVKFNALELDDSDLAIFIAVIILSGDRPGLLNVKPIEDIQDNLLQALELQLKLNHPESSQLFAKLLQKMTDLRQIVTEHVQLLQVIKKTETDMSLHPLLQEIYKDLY

[9] = molecular target: T6, PPARδ (Homo sapiens, UniProt Q03181)
T6 sequence (Q03181 1-441): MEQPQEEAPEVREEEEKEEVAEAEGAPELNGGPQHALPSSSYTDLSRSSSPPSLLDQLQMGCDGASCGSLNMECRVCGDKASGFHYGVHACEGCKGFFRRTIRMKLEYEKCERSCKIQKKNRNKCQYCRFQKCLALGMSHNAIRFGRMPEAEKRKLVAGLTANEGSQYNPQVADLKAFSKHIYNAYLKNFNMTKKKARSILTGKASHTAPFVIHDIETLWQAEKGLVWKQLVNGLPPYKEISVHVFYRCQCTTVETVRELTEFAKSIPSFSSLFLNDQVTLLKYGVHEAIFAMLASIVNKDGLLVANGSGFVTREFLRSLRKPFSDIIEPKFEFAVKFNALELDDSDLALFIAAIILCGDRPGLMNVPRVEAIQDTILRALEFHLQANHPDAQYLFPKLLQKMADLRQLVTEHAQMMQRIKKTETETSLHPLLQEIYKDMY

[10] = molecular target: T7, PPARα (Homo sapiens, UniProt Q07869)
T7 sequence (Q07869 1-468): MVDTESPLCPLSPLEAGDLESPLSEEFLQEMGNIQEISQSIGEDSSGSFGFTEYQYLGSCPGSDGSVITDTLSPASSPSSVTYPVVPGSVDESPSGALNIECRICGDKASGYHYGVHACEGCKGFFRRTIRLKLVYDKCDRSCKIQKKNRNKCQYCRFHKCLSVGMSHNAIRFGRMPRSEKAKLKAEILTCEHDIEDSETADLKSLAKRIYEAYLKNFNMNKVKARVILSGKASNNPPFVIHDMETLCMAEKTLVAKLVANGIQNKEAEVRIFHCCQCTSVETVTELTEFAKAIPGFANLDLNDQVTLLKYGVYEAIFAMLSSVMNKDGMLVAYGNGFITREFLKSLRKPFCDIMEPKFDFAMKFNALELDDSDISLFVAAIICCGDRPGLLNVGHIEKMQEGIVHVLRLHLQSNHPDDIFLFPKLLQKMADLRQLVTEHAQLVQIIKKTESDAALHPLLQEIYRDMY

[11] = system: Aquaporin 4 (AQP4); details: pretreatment, mouse focal cerebral ischemia
[12] = system: Na+-H+ exchange (NHE)
[13] = system: organic anion transporters (OAT); details: at 0.5-1 mM
[14] = system: cultured mammalian cells
[15] = rats
[16] = in vivo
[17] = system: human platelets
[18] = molecular target: T8, H+K+ATPase (Oryctolagus cuniculus, UniProt P27112); details: microsomal membranes from rabbit fundic mucosa; read-out: IC50, inhibition of isolated H+K+ATPase enzyme activity
T8 construct: a preparation of microsomal membranes from rabbit fundic mucosa; from tissue; host or cells: rabbit fundic mucosa, microsomal membranes
T8 sequence (P27112 whole entry): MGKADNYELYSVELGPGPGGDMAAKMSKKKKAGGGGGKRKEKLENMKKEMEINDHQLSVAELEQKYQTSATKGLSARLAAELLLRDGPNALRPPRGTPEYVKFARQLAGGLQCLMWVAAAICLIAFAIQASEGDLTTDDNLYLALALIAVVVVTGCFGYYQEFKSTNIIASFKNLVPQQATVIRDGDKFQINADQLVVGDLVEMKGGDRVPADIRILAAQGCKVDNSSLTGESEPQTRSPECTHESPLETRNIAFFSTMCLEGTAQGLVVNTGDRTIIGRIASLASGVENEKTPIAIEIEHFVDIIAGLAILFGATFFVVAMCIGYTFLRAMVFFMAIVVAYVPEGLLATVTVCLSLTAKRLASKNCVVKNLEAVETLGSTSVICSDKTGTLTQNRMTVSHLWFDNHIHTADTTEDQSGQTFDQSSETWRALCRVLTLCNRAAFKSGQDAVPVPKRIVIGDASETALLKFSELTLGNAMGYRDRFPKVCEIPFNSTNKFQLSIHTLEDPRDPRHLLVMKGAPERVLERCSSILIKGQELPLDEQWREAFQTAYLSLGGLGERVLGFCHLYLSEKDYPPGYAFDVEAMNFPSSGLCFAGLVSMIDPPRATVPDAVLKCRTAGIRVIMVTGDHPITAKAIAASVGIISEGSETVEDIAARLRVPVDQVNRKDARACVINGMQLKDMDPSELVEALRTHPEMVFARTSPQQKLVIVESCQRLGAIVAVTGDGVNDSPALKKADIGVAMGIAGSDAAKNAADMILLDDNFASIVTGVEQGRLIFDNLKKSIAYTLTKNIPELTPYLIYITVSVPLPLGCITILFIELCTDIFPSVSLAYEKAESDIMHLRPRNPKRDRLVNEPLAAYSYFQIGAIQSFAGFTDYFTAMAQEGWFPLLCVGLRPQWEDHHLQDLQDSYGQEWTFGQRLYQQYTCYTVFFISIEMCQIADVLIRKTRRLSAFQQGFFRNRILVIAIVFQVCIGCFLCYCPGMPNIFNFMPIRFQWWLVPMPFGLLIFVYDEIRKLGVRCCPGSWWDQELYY
T8 sequence (P18597 whole entry partner): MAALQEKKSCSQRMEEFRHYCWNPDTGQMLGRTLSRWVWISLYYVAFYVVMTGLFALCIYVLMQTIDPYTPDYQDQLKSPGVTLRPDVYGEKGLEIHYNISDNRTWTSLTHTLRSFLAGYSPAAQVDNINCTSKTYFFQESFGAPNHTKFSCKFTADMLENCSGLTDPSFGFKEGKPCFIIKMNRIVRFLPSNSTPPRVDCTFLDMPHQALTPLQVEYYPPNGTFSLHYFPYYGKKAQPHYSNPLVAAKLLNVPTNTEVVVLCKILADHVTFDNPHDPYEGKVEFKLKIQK

[19] = molecular target: T9, KCC2 (Homo sapiens, UniProt Q9H2X9)
T9 sequence (Q9H2X9 1-1139): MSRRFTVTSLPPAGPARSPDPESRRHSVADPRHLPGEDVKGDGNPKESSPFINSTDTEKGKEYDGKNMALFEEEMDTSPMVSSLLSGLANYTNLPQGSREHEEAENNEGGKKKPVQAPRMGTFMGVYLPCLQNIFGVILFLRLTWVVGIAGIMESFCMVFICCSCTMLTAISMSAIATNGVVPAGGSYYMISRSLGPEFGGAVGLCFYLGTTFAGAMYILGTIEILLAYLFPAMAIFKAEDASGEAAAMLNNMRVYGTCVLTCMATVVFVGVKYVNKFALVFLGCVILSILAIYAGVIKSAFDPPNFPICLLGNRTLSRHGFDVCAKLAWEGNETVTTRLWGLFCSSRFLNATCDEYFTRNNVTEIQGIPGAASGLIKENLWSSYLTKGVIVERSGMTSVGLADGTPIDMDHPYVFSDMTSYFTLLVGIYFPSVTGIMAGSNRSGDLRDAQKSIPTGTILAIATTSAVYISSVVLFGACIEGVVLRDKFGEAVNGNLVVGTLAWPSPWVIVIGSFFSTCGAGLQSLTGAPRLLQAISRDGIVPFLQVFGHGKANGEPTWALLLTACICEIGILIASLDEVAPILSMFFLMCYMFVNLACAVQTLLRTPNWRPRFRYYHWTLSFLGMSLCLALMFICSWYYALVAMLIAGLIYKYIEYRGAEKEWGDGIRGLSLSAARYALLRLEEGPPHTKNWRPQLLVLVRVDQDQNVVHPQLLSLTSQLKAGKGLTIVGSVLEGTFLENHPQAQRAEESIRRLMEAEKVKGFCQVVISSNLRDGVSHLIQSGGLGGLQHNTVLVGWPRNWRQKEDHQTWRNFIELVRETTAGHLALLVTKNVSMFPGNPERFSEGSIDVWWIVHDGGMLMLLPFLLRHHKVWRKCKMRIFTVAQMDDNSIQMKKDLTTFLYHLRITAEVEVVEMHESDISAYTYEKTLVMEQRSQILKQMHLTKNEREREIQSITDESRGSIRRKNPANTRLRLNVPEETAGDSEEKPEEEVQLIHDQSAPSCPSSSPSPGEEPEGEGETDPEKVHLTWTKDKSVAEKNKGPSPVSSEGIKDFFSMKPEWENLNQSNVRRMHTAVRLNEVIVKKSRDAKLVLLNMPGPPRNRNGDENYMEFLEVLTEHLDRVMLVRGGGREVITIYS

[20] = system: Na/K ATPase

T1 sequence (O14842 whole entry): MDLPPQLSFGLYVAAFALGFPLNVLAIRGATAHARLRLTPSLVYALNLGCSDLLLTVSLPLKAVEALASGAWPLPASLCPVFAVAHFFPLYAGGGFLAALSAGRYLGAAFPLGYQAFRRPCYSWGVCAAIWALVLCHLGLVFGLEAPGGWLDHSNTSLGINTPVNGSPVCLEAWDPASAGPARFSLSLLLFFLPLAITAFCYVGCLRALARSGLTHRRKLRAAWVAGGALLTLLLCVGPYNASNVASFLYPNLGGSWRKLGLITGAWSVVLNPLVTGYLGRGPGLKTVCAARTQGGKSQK

Molecule: CC/C=C\C/C=C\C/C=C\C/C=C\C/C=C\C/C=C\CCC(=O)O [DHA (C22:6), DHA]
- FFA1 pEC50 [1]: 5.4-6.0
- GPR120 pEC50 [2]: 5.4

Molecule: NGF: nerve growth factor injected into the stellate ganglion of dogs
- QTc [3]: shortened
- QTc interval [3]: prolonged
- SCD [3]: did not cause SCD
- risk of SCD [3]: 50%

Molecule: CN(CCOc1ccc(CC2SC(=O)NC2=O)cc1)c1ccccn1 (centres unmarked) [Rosiglitazone]
- FFA1 pEC50 [4]: 5.0-5.6^a

Molecule: Cc1ccccc1C#Cc1ccc(CCC(=O)O)cc1 [TUG424]
- FFA1 pEC50 [5]: 7.5^b
- activity at FFA3 [6]: No activity at FFA2 and FFA3 reported (TUG424).
- activity at FFA2 [7]: No activity at FFA2 and FFA3 reported (TUG424).

Molecule: CCCCCCCCCCCCCCCC(=O)O [Palmitic acid (C18:0), Palmitic acid]
- FFA1 pEC50 [1]: 5.2-5.3

Molecule: CCCCCCCC/C=C\CCCCCCCC(=O)O [Oleic acid (C18:1), Oleic acid]
- FFA1 pEC50 [1]: 4.4-5.7

Molecule: O=C(O)CCCc1ccc(OCCN(c2ccccc2)c2ccccn2)cc1 [NCG21 (Cpd 12)]
- PPARγ agonist activity ([8]; at 100 μM): Lacks PPARα, δ, and γ
- PPARδ agonist activity ([9]; at 100 μM): Lacks PPARα, δ, and γ
- FFA1 pEC50 [1]: 4.7
- PPARα agonist activity ([10]; at 100 μM): Lacks PPARα, δ, and γ
- GPR120 pEC50 [2]: 5.9

Molecule: O=C(O)CCc1ccc(NCc2cccc(Oc3ccccc3)c2)cc1 [GW9508]
- pEC50 for PPARγ [8]: 4.9
- pEC50 for PPARδ [9]: 4.0
- FFA1 pEC50 [1]: 6.6-7.3
- pEC50 for PPARα [10]: 4.0

Molecule: O=C(Nc1nncs1)c1cccnc1 [TGN-020]
- volume of brain edema associated with ischemic injury [11]: significantly reduced

Molecule: Cc1ccc(CN(Cc2ccc(-c3ccccc3S(=O)(=O)NC#N)cc2)C(=O)c2ccccc2Cl)cc1 [S0859]
- inhibition of Na+-H+ exchange (NHE) [12]: does not inhibit

Molecule: C=C1C[C@@]23CC[C@H]4[C@@](C)(CCC[C@@]4(C)C(=O)O[C@@H]4O[C@H](CO)[C@@H](O)[C@H](O)[C@H]4O)[C@@H]2CC[C@]1(O[C@@H]1O[C@H](CO)[C@@H](O)[C@H](O)[C@H]1O[C@@H]1O[C@H](CO)[C@@H](O)[C@H](O)[C@H]1O)C3 [Stevioside]
- interaction with organic anion transporters (OAT) [13]: no interaction
- genotoxic effects [14]: genotoxic effects

Molecule: N=C(N)NC(=O)c1cnn(-c2cccc3ncccc23)c1C1CC1 [Zoniporide]
- cardiac contractile dysfunction [15]: attenuates
- peripheral sensory axonopathy [16]: causes peripheral sensory axonopathy
- swelling of human platelets [17]: inhibits

Molecule: Cc1nc2c(OCc3ccccc3)nccn2c1N [SCH 32651]
- IC50 [18]: 200 µM

Molecule: Cc1csc(NC(=O)CSc2ccc(-c3ccccc3)nn2)n1 [VU024055 1]
- selectivity for KCC2 over NKCCI [19]: selective

Molecule: O=c1c2ccc(O)c(O)c2oc2c(O)c(O)ccc12 [3,4,5,6-Tetrahydroxyxanthone]
- affinity of Na/K ATPase pump inhibition [20]: comparable to ouabain

Molecule: Cc1nc2c(OCc3ccccc3)cccn2c1CC#N [SCH-28080]
- IC50 [18]: 2.5 µM
